Test results as given in paper PMC9669016, “First-in-human phase Ia study of the PI3Kα inhibitor CYH33 in patients with solid tumors” (Nature Communications, 2022).

Assay: Clinical pharmacokinetics: plasma CYH33 and I27 by LC/MS/MS
Assay type: in vivo, human
Protocol: The PK characteristics of CYH33 and its active metabolite I27 were evaluated after single and multiple dose administrations. PK data were obtained from 37 patients from 7 dose cohorts: 1 mg (n = 1), 5 mg (n = 1), 10 mg (n = 2), 20 mg (n = 6), 30 mg (n = 12), 40 mg (n = 13), and 60 mg (n = 2). Intensive and sparse PK sampling was performed. Prior to initiating a continuous daily treatment cycle, the first 5 patients participated in a single dose PK treatment period with a 7-day washout in order to determine the terminal-phase half-life (t1/2) of CYH33 and its active metabolite I27. Based on the single dose PK data for CYH33 of the first 5 patients at doses of 1, 5, 10 and 20 mg, the PK and metabolic characteristics of CYH33 and I27 were evaluated. Combined with the pre-specified rules in the protocol and deliberation from the SMC, subsequent patients directly entered the continuous dose phase.
Blood samples for PK evaluation were collected at: (1) during the single dose phase: on day 1 pre-dose and 0.5, 1, 2, 4, 8, 12, 24, 36, 48, and 72 h post-dose; (2) during the continuous dose phase: C1D1/Cycle 1 Day 28 pre-dose, and 0.5, 1, 2, 3, 4, 6, 8, 12, and 24 h post-dose; and C1D8/Day 15 pre-dose. Plasma concentrations of CYH33 and I27 were analyzed using a liquid chromatography-tandem mass spectrometry (LC/MS/MS) assay (Shimadzu Corporation, LC-30AD) with a lower limit of quantification (LLOQ) of 2.585 ng/mL and 1.0 ng/mL for CYH33 and I27, respectively. […] Blood samples for measuring the FBG level were collected within 30 min before dosing on C1D1, C1D15, and on the first day of subsequent treatment cycles.

[1] = CYH33, Cycle 1 Day 1, 5 mg (n = 1)
[2] = CYH33, Cycle 1 Day 1, 10 mg (n = 2)
[3] = CYH33, Cycle 1 Day 1, 20 mg (n = 5)

SMILES: COC(=O)Nc1cc(C(F)(F)F)c(-c2nc(N3CCOCC3)c3cc(CN4CCN(S(C)(=O)=O)CC4)cn3n2)cn1 [CYH33, methyl (5-(6-((4-(methylsulfonyl)piperazin-1-yl)methyl)−4-morpholinopyrrolo[2,1-f][1,2,4]triazin-2-yl)−4-(trifluoromethyl)pyridin-2-yl)carbamate]
- CYH33 plasma concentration, mean (C1D1, 1 mg, 1 h): 4.6 ng/mL
- CYH33 plasma concentration, mean (C1D1, 1 mg, 2 h): 3.8 ng/mL
- CYH33 plasma concentration, mean (C1D1, 1 mg, 4 h): 2.9 ng/mL
- CYH33 plasma concentration, mean (C1D1, 1 mg, 8 h): 1.8 ng/mL
- CYH33 plasma concentration, mean (C1D1, 1 mg, 12 h): 0 ng/mL
- CYH33 plasma concentration, mean (C1D1, 1 mg, 36 h): 0 ng/mL
- CYH33 plasma concentration, mean (C1D1, 1 mg, 48 h): 0 ng/mL
- CYH33 plasma concentration, mean (C1D1, 1 mg, 72 h): 0 ng/mL
- CYH33 plasma concentration, mean (C1D1, 5 mg, 1 h): 18.1 ng/mL
- CYH33 plasma concentration, mean (C1D1, 5 mg, 2 h): 24.6 ng/mL
- CYH33 plasma concentration, mean (C1D1, 5 mg, 4 h): 19.5 ng/mL
- CYH33 plasma concentration, mean (C1D1, 5 mg, 8 h): 11.8 ng/mL
- CYH33 plasma concentration, mean (C1D1, 5 mg, 12 h): 9.7 ng/mL
- CYH33 plasma concentration, mean (C1D1, 5 mg, 36 h): 3.8 ng/mL
- CYH33 plasma concentration, mean (C1D1, 5 mg, 48 h): 2.5 ng/mL
- CYH33 plasma concentration, mean (C1D1, 10 mg, 1 h): 30.2 ng/mL
- CYH33 plasma concentration, mean (C1D1, 10 mg, 2 h): 35.3 ng/mL
- CYH33 plasma concentration, mean (C1D1, 10 mg, 8 h): 30.2 ng/mL
- CYH33 plasma concentration, mean (C1D1, 10 mg, 12 h): 23.9 ng/mL
- CYH33 plasma concentration, mean (C1D1, 10 mg, 36 h): 9.3 ng/mL
- CYH33 plasma concentration, mean (C1D1, 10 mg, 48 h): 6.8 ng/mL
- CYH33 plasma concentration, mean (C1D1, 20 mg, 0.5 h, in ng/mL): 26.7325
- CYH33 plasma concentration, mean (C1D1, 20 mg, 1 h, in ng/mL): 44.192
- CYH33 plasma concentration, mean (C1D1, 20 mg, 2 h, in ng/mL): 54.18
- CYH33 plasma concentration, mean (C1D1, 20 mg, 3 h, in ng/mL): 46.425
- CYH33 plasma concentration, mean (C1D1, 20 mg, 6 h, in ng/mL): 32.9075
- CYH33 plasma concentration, mean (C1D1, 20 mg, 8 h, in ng/mL): 36.04
- CYH33 plasma concentration, mean (C1D1, 20 mg, 36 h): 23.6 ng/mL
- CYH33 plasma concentration, mean (C1D1, 20 mg, 48 h): 15.8 ng/mL
- CYH33 plasma concentration, mean (C1D1, 30 mg, 0.5 h, in ng/mL): 24.6458
- CYH33 plasma concentration, mean (C1D1, 30 mg, 1 h, in ng/mL): 57.5417
- CYH33 plasma concentration, mean (C1D1, 30 mg, 2 h, in ng/mL): 79.1167
- CYH33 plasma concentration, mean (C1D1, 30 mg, 3 h, in ng/mL): 79.1917
- CYH33 plasma concentration, mean (C1D1, 30 mg, 6 h, in ng/mL): 64.9583
- CYH33 plasma concentration, mean (C1D1, 30 mg, 8 h, in ng/mL): 60.1583
- CYH33 plasma concentration, mean (C1D1, 30 mg, 24 h, in ng/mL): 43.65
- CYH33 plasma concentration, mean (C1D1, 30 mg, 48 h): 42.5 ng/mL
- CYH33 plasma concentration, mean (C1D1, 40 mg, 1 h, in ng/mL): 78.4333
- CYH33 plasma concentration, mean (C1D1, 40 mg, 2 h): 87 ng/mL
- CYH33 plasma concentration, mean (C1D1, 40 mg, 3 h): 88.2 ng/mL
- CYH33 plasma concentration, mean (C1D1, 40 mg, 4 h, in ng/mL): 78.0667
- CYH33 plasma concentration, mean (C1D1, 40 mg, 6 h, in ng/mL): 62.5333
- CYH33 plasma concentration, mean (C1D1, 40 mg, 8 h, in ng/mL): 57.6333
- CYH33 plasma concentration, mean (C1D1, 40 mg, 12 h, in ng/mL): 47.8667
- CYH33 plasma concentration, mean (C1D1, 40 mg, 48 h): 45.2 ng/mL
- CYH33 plasma concentration, mean (C1D1, 60 mg, 1 h): 55.6 ng/mL
- CYH33 plasma concentration, mean (C1D1, 60 mg, 2 h, in ng/mL): 86.475
- CYH33 plasma concentration, mean (C1D1, 60 mg, 3 h, in ng/mL): 95.325
- CYH33 plasma concentration, mean (C1D1, 60 mg, 4 h, in ng/mL): 109.05
- CYH33 plasma concentration, mean (C1D1, 60 mg, 6 h, in ng/mL): 98.025
- CYH33 plasma concentration, mean (C1D1, 60 mg, 8 h): 96.2 ng/mL
- CYH33 plasma concentration, mean (C1D1, 60 mg, 12 h, in ng/mL): 78.575
- CYH33 plasma concentration, mean (C1D1, 60 mg, 48 h): 61.4 ng/mL
- CYH33 plasma concentration, mean (C1D28, 1 mg, 0.5 h): 2.38 ng/mL
- CYH33 plasma concentration, mean (C1D28, 1 mg, 1 h): 4.57 ng/mL
- CYH33 plasma concentration, mean (C1D28, 1 mg, 2 h): 4.43 ng/mL
- CYH33 plasma concentration, mean (C1D28, 1 mg, 8 h): 2.84 ng/mL
- CYH33 plasma concentration, mean (C1D28, 1 mg, 12 h): 1.9 ng/mL
- CYH33 plasma concentration, mean (C1D28, 1 mg, 24 h): 0 ng/mL
- CYH33 plasma concentration, mean (C1D28, 5 mg, 0.5 h): 48.6 ng/mL
- CYH33 plasma concentration, mean (C1D28, 5 mg, 1 h): 56.2 ng/mL
- CYH33 plasma concentration, mean (C1D28, 5 mg, 2 h): 43 ng/mL
- CYH33 plasma concentration, mean (C1D28, 5 mg, 8 h): 23.5 ng/mL
- CYH33 plasma concentration, mean (C1D28, 5 mg, 12 h): 20 ng/mL
- CYH33 plasma concentration, mean (C1D28, 5 mg, 24 h): 15.1 ng/mL
- CYH33 plasma concentration, mean (C1D28, 10 mg, 0.5 h): 49.9 ng/mL
- CYH33 plasma concentration, mean (C1D28, 10 mg, 1 h): 61.4 ng/mL
- CYH33 plasma concentration, mean (C1D28, 10 mg, 2 h): 77.5 ng/mL
- CYH33 plasma concentration, mean (C1D28, 10 mg, 8 h): 55.7 ng/mL
- CYH33 plasma concentration, mean (C1D28, 10 mg, 12 h): 47.9 ng/mL
- CYH33 plasma concentration, mean (C1D28, 10 mg, 24 h): 35.4 ng/mL
- CYH33 plasma concentration, mean (C1D28, 20 mg, 0.5 h, in ng/mL): 110.84
- CYH33 plasma concentration, mean (C1D28, 20 mg, 1 h): 134 ng/mL
- CYH33 plasma concentration, mean (C1D28, 20 mg, 2 h, in ng/mL): 135.8
- CYH33 plasma concentration, mean (C1D28, 20 mg, 6 h, in ng/mL): 117.175
- CYH33 plasma concentration, mean (C1D28, 20 mg, 8 h, in ng/mL): 120.72
- CYH33 plasma concentration, mean (C1D28, 20 mg, 12 h, in ng/mL): 106.84
- CYH33 plasma concentration, mean (C1D28, 20 mg, 24 h, in ng/mL): 83.68
- CYH33 plasma concentration, mean (C1D28, 30 mg, 0.5 h, in ng/mL): 149.367
- CYH33 plasma concentration, mean (C1D28, 30 mg, 1 h, in ng/mL): 154.011
- CYH33 plasma concentration, mean (C1D28, 30 mg, 2 h, in ng/mL): 172.178
- CYH33 plasma concentration, mean (C1D28, 30 mg, 6 h, in ng/mL): 163.956
- CYH33 plasma concentration, mean (C1D28, 30 mg, 8 h, in ng/mL): 162.122
- CYH33 plasma concentration, mean (C1D28, 30 mg, 12 h, in ng/mL): 143.189
- CYH33 plasma concentration, mean (C1D28, 40 mg, 0.5 h, in ng/mL): 167.057
- CYH33 plasma concentration, mean (C1D28, 40 mg, 1 h, in ng/mL): 191.129
- CYH33 plasma concentration, mean (C1D28, 40 mg, 2 h, in ng/mL): 206.714
- CYH33 plasma concentration, mean (C1D28, 40 mg, 3 h, in ng/mL): 262.333
- CYH33 plasma concentration, mean (C1D28, 40 mg, 6 h, in ng/mL): 245.333
- CYH33 plasma concentration, mean (C1D28, 40 mg, 8 h, in ng/mL): 166.029
- CYH33 plasma concentration, mean (C1D28, 40 mg, 12 h, in ng/mL): 158.629
- CYH33 plasma concentration, mean (C1D28, 40 mg, 24 h, in ng/mL): 134.657
- CYH33 plasma concentration, mean (C1D28, 60 mg, 0.5 h): 155 ng/mL
- CYH33 plasma concentration, mean (C1D28, 60 mg, 1 h): 184 ng/mL
- CYH33 plasma concentration, mean (C1D28, 60 mg, 2 h): 198 ng/mL
- CYH33 plasma concentration, mean (C1D28, 60 mg, 3 h): 193 ng/mL
- CYH33 plasma concentration, mean (C1D28, 60 mg, 6 h): 205 ng/mL
- CYH33 plasma concentration, mean (C1D28, 60 mg, 8 h): 181 ng/mL
- CYH33 plasma concentration, mean (C1D28, 60 mg, 12 h): 163 ng/mL
- CYH33 plasma concentration, mean (C1D28, 60 mg, 24 h): 135 ng/mL
- CL/F, mean (CV%) [1]: 11.6 L/h
- V/F, mean (CV%) [1]: 322.8 L
- CL/F, mean (CV%) [2]: 9.2 (11) L/h
- V/F, mean (CV%) [2]: 263.2 (24) L
- CL/F, mean (CV%) [3]: 9.1 L/h
- V/F, mean (CV%) [3]: 274.2 L
- CLss/F, mean (CYH33, Cycle 1 Day 28, 1 mg (n=1)): 19.4 L/h
